In US20240327412A1, “FACTOR XIIA INHIBITORS” (KALVISTA PHARMACEUTICALS LIMITED, priority 2021, published 2024):

Biological target: T1, Human Factor XIIa (Homo sapiens, UniProt P00748)
T1 construct: Proteolytic cleavage of FXII to heavy and light chains of FXIIa dramatically increases catalytic activity; purchased Enzyme Research Laboratories
T1 sequence (P00748 373-615 limits assumed): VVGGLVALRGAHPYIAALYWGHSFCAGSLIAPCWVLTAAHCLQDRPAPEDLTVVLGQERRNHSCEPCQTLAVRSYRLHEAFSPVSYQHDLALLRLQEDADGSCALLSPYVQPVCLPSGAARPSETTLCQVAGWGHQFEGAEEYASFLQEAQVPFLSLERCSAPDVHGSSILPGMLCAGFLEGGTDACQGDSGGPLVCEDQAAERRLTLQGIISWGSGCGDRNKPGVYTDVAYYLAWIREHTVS
T1 sequence (P00748 20-372 partner limits assumed): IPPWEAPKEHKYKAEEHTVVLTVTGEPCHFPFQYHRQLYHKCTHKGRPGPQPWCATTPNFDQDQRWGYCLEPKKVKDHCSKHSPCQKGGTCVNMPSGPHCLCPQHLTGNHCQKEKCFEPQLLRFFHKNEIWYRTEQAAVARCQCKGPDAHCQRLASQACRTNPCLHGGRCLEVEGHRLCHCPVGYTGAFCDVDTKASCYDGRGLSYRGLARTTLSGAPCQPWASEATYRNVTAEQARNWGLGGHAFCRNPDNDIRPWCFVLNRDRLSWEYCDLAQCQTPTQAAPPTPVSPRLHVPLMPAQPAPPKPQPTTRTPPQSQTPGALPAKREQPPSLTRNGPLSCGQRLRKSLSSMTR
Assay: Determination of FXIIa inhibition (fluorogenic substrate H-DPro-Phe-Arg-AFC, IC50 assay)
Type: biochemical
Settings: substrate at Km concentration, 25° C.; category scale; read-out: Human FXII IC50 (nm)
In short: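 Human FXIIa incubated at 25° C. with fluorogenic H-DPro-Phe-Arg-AFC at its Km concentration plus varying compound levels. Linear fluorescence increase over 5 min taken as % activity; IC50 is concentration halving uninhibited activity.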

| Structure (SMILES) | IC50 |
| --- | --- |
| Cn1cc(OCC23CCOC(CNc4cccc5c(N)nccc45)(C2)C3)ccc1=O [Example 10943, 5-((1-(((1-aminoisoquinolin-5-yl)amino)methyl)-2-oxabicyclo[3.1.1]heptan-5-yl)methoxy)-1-methylpyridin-2(1H)-one] | 1000 to 3000 nM |
| CC(C)n1ccc(OCC23CCOC(CNc4cccc5c(N)nccc45)(C2)C3)cc1=O [Example 10934, 4-((1-(((1-aminoisoquinolin-5-yl)amino)methyl)-2-oxabicyclo[3.1.1]heptan-5-yl)methoxy)-1-isopropylpyridin-2(1H)-one] | 300 to 1000 nM |
| Cc1cnc2ccc(OCC34COC(CNc5ccccc5C#N)(C3)C4)cn12 [Example 6658, 2-(((4-(((3-methylimidazo[1,2-a]pyridin-6-yl)oxy)methyl)-2-oxabicyclo[2.1.1]hexan-1-yl)methyl)amino)benzonitrile] | 10000 to 40000 nM |
| Cn1ccc(OCC23CN(C(=O)Nc4ccccc4F)C(CNc4cccc5c(N)nccc45)(C2)C3)cc1=O [Example 12068, 1-(((1-aminoisoquinolin-5-yl)amino)methyl)-N-(2-fluorophenyl)-4-(((1-methyl-2-oxo-1,2-dihydropyridin-4-yl)oxy)methyl)-2-azabicyclo[2.1.1]hexane-2-carboxamide] | 1 to 10 nM |
| Nc1nccc2c(NCC34CC(COc5cc(C(F)(F)F)c6nccn6c5)(CO3)C4)cccc12 [Example 6630, N5-((4-(((8-(trifluoromethyl)imidazo[1,2-a]pyridin-6-yl)oxy)methyl)-2-oxabicyclo[2.1.1]hexan-1-yl)methyl)isoquinoline-1,5-diamine] | 100 to 300 nM |
| Nc1nccc2c(NCC34CC(Cn5nccn5)(CO3)C4)cccc12 [Example 6647, N5-((4-((2H-1,2,3-triazol-2-yl)methyl)-2-oxabicyclo[2.1.1]hexan-1-yl)methyl)isoquinoline-1,5-diamine] | 40000 to 100000 nM |
| Cn1ccc(OCC23CN(C(=O)CCc4cccc(Br)c4)C(CNc4cccc5c(N)nccc45)(C2)C3)cc1=O [Example 12053, 4-((1-(((1-aminoisoquinolin-5-yl)amino)methyl)-2-(3-(3-bromophenyl)propanoyl)-2-azabicyclo[2.1.1]hexan-4-yl)methoxy)-1-methylpyridin-2(1H)-one] | 10 to 100 nM |
| Nc1nccc2c(NCC34CC(COc5ccc6nncn6n5)(CO3)C4)cccc12 [Example 6638, N5-((4-(([1,2,4]triazolo[4,3-b]pyridazin-6-yloxy)methyl)-2-oxabicyclo[2.1.1]hexan-1-yl)methyl)isoquinoline-1,5-diamine] | 1000 to 3000 nM |
| Cc1cnc2ccc(OCC34COC(CNc5cccnc5)(C3)C4)cn12 [Example 6661, N-((4-(((3-methylimidazo[1,2-a]pyridin-6-yl)oxy)methyl)-2-oxabicyclo[2.1.1]hexan-1-yl)methyl)pyridin-3-amine] | 10000 to 40000 nM |
| Cn1ccc(OCC23CC(CNc4cccc5c(N)nccc45)(CN2C(=O)Nc2ccccc2)C3)cc1=O [Example 13019, 4-(((1-aminoisoquinolin-5-yl)amino)methyl)-1-(((1-methyl-2-oxo-1,2-dihydropyridin-4-yl)oxy)methyl)-N-phenyl-2-azabicyclo[2.1.1]hexane-2-carboxamide] | 300 to 1000 nM |
| Cc1cc(OCC23CN(C(=O)Cc4ccccc4)C(CNc4cccc5c(N)nccc45)(C2)C3)cc(=O)n1C [Example 12039, 4-((1-(((1-aminoisoquinolin-5-yl)amino)methyl)-2-(2-phenylacetyl)-2-azabicyclo[2.1.1]hexan-4-yl)methoxy)-1,6-dimethylpyridin-2(1H)-one] | 10 to 100 nM |
| Cn1ccc(OCC23CC(CNc4cccc5c(N)nccc45)(CN2C(=O)NCc2ccccc2)C3)cc1=O [Example 13012, 4-(((1-aminoisoquinolin-5-yl)amino)methyl)-N-benzyl-1-(((1-methyl-2-oxo-1,2-dihydropyridin-4-yl)oxy)methyl)-2-azabicyclo[2.1.1]hexane-2-carboxamide] | 10 to 100 nM |
| Cn1ccc(OCC23CN(c4ccncc4)C(CNc4cccc5c(N)nccc45)(C2)C3)cc1=O [Example 12065, 4-((1-(((1-aminoisoquinolin-5-yl)amino)methyl)-2-(pyridin-4-yl)-2-azabicyclo[2.1.1]hexan-4-yl)methoxy)-1-methylpyridin-2(1H)-one] | 1 to 10 nM |
| Cn1ccc(OCC23CC(CNc4cccc5c(N)nccc45)(CN2C(=O)OC(C)(C)C)C3)cc1=O [Example 13005, tert-butyl 4-(((1-aminoisoquinolin-5-yl)amino)methyl)-1-(((1-methyl-2-oxo-1,2-dihydropyridin-4-yl)oxy)methyl)-2-azabicyclo[2.1.1]hexane-2-carboxylate] | 100 to 300 nM |
| COc1ccc(CNC(=O)N2CC3(COc4ccn(C)c(=O)c4)CC2(CNc2cccc4c(N)nccc24)C3)cc1 [Example 12062, 1-(((1-aminoisoquinolin-5-yl)amino)methyl)-N-(4-methoxybenzyl)-4-(((1-methyl-2-oxo-1,2-dihydropyridin-4-yl)oxy)methyl)-2-azabicyclo[2.1.1]hexane-2-carboxamide] | 10 to 100 nM |
| Nc1nccc2c(NCC34CC(COc5ccn6c(C(F)(F)F)cnc6c5)(CCO3)C4)cccc12 [Example 10932, N5-((5-(((3-(trifluoromethyl)imidazo[1,2-a]pyridin-7-yl)oxy)methyl)-2-oxabicyclo[3.1.1]heptan-1-yl)methyl)isoquinoline-1,5-diamine] | 100 to 300 nM |
| Nc1nccc2c(NCC34CC(COc5ccc6ncc(C(F)F)n6c5)(CO3)C4)cccc12 [Example 6644, 5-N-[[4-[[3-(Difluoromethyl)imidazo[1,2-a]pyridin-6-yl]oxymethyl]-2-oxabicyclo[2.1.1]hexan-1-yl]methyl]isoquinoline-1,5-diamine] | 300 to 1000 nM |
| Nc1nccc2c(NCC34CC(Cn5ccnc5)(CO3)C4)cccc12 [Example 6646, N5-((4-((1H-imidazol-1-yl)methyl)-2-oxabicyclo[2.1.1]hexan-1-yl)methyl)isoquinoline-1,5-diamine] | 40000 to 100000 nM |
| Cc1ccc(OCC23CCOC(CNc4cccc5c(N)nccc45)(C2)C3)nc1 [Example 10956, N5-((5-(((5-methylpyridin-2-yl)oxy)methyl)-2-oxabicyclo[3.1.1]heptan-1-yl)methyl)isoquinoline-1,5-diamine] | 1000 to 3000 nM |
| Cn1ccc(OCC23CN(c4ncc(-c5ccccc5)cn4)C(CNc4cccc5c(N)nccc45)(C2)C3)cc1=O [Example 12060, 4-((1-(((1-Aminoisoquinolin-5-yl)amino)methyl)-2-(5-phenylpyrimidin-2-yl)-2-azabicyclo[2.1.1]hexan-4-yl)methoxy)-1-methylpyridin-2(1H)-one] | 1 to 10 nM |
| Cn1ccc(OCC23CN(C(=O)CCc4cccc(OC(F)F)c4)C(CNc4cccc5c(N)nccc45)(C2)C3)cc1=O [Example 12056, 4-((1-(((1-aminoisoquinolin-5-yl)amino)methyl)-2-(3-(3-(difluoromethoxy)phenyl)propanoyl)-2-azabicyclo[2.1.1]hexan-4-yl)methoxy)-1-methylpyridin-2(1H)-one] | 10 to 100 nM |
| Cn1ccc(OCC23CN(C(=O)NCc4cccc(C(F)(F)F)c4)C(CNc4cccc5c(N)nccc45)(C2)C3)cc1=O [Example 12069, 1-(((1-aminoisoquinolin-5-yl)amino)methyl)-4-(((1-methyl-2-oxo-1,2-dihydropyridin-4-yl)oxy)methyl)-N-(3-(trifluoromethyl)benzyl)-2-azabicyclo[2.1.1]hexane-2-carboxamide] | 10 to 100 nM |
